Source: patent publication US20250134921A1, “[…] ACID GLY[…] THEIR USES FOR TREATING INFECTIOUS DISEASES” (priority 2021, published 2025)

Columns and labels:
[1] = system: VSV-SARS-CoV-2 (SARS-CoV-2 spike pseudotyped VSV); format: cell-based
[2] = biological target: T1, SARS-CoV-2 spike S1 subunit (Severe acute respiratory syndrome coronavirus 2, UniProt P0DTC2); format: binding
T1 construct: 50 μL of S1-subunit protein solution (0.1 mg·mL^−1, Genscript Z03501); purchased Genscript Z03501

SARS-CoV-2 S1 subunit = biological target: T2, SARS-CoV-2 S1 subunit (Severe acute respiratory syndrome coronavirus 2, UniProt P0DTC2); experiment: biochemical; format: binding
T2 construct: 50 μL of S1-subunit protein solution (0.1 mg·mL^−1, Genscript Z03501); purchased Genscript Z03501

[3] = system: UV-inactivated SARS-CoV-2 virions; format: binding

Row | Compound | reduction of VSV-SARS-CoV-2 infectivity [1] | binding probability (BP) in competition assay [2] | Kd (SARS-CoV-2 S1 subunit) [µM] | kon (SARS-CoV-2 S1 subunit; read-out: association rate (kon)) [M⁻¹ s⁻¹] | reduction in the binding frequency (BF) [3]
1 | CC(=O)N[C@H]1[C@H]([C@H](O)[C@H](O)COC(C)=O)OC(O)(C(=O)O)C[C@@H]1O (some centres unmarked) [Compound 9-AcSA, 9-O-acetyl-sialic acid] | did not significantly reduce | – | – | – | –
2 | CC(=O)N[C@H]1C([C@H](O)[C@H](O)COC(C)=O)O[C@](O)(C(=O)O)C[C@H]1O (some centres unmarked) [Compound 9-AcSA, 9-O-acetyl-sialic acid] | – | significantly lower binding probability | 5.7 ± 5 | 42000 | 20-30%
